PubChem BioAssay AID651703 (Broad Institute, 2012)
Several values for one entry are separate records, joined by “and”; a condition that tells them apart may be missing. Equal entries are not always repeated.

target: Transforming acidic coiled-coil-containing protein 3 (Homo sapiens) (UniProt Q9Y6A5); assay: inhibition of ARNT PAS-B/TACC3 complex formation – biochemical, AlphaScreen, cherry-picked samples, confirmation (AID 651703); conditions: AlphaScreen His-ARNT PAS-B / GST-TACC3 binding, luminescence;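 further: TACC3 partner is the GST-tagged E629A mutant dimer; hits lower the signal meaning they disrupt ARNT binding to TACC3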

Row | Structure (SMILES) | AC50
1 | N#CC1(c2ccccc2)CCN(Cc2ccc(O)c3ncccc23)CC1 | 3.66 µM
2 | O=C(N/N=C/c1sc2ccccc2c1O)c1cccc2ccccc12 | 23 µM
3 | O=C(CSc1ccc2nnc(-c3ccccn3)n2n1)NCC1CCCO1 (stereo unspecified) | 49.7 µM
4 | CCOc1ccc(NC(=O)CC(NCc2ccccn2)C(=O)O)cc1 (stereo unspecified) | < 0.5 µM
5 | OCC1CCN(c2nc(-c3ccccn3)nnc2-c2ccccc2)CC1 | 1.03 µM
6 | Cc1ccc(NC(=O)CN(C)C(=O)COc2cccc3cccnc23)cc1 | 41.7 µM
7 | c1ccc(-c2nc3ccccn3c2NC2CCCC2)nc1 | 13.9 µM
8 | Cc1c(NC(=O)CSc2cccc3cccnc23)c(=O)n(-c2ccccc2)n1C | 3.6 µM
9 | O=c1cc(-c2ccc(O)cc2)oc2c(O)c(O)c(O)c(O)c12 | 63 µM
10 | Cc1[nH][nH]c(=O)c1C(c1c(C)[nH][nH]c1=O)c1cn(Cc2cccc3ccccc23)c2ccccc12 | 19.9 µM
11 | CC(C)(C)CCNc1nc(-c2ccccn2)nnc1-c1ccccc1 | 0.717 µM and < 0.5 µM
12 | Cc1ccc2cc(C3C(C#N)=C(N)Oc4c3ccc3cccnc43)c(=O)[nH]c2c1 (stereo unspecified) | 7.43 µM
13 | O=C(CSc1ccc2nnc(-c3ccccn3)n2n1)Nc1ccc2c(c1)OCO2 | 46.5 µM
14 | O=C(N[C@@H]1CC[C@@H](CCn2cc(-c3ccccn3)nn2)O[C@@H]1CO)c1ccncc1 | 10.3 µM
15 | COc1ccccc1Nc1nc(N)nc(CN(C)C2CCCCC2)n1 | 37.7 µM
16 | O=C(CSc1ccc(-c2ccccn2)nn1)c1ccccc1 | 3.36 µM

Row | Structure (SMILES) | AC50
17 | O=C(c1ccco1)[C@@H]1[C@@H]2C(=O)N(c3ccccc3)C(=O)[C@@H]2C2c3ccccc3C=CN21 (stereo partly specified) | 45.9 µM
18 | O=C(N/N=C/c1cc(Cl)cc(Cl)c1O)c1ccncc1 | 3.58 µM
19 | c1ccc(-c2nnc(-c3ccccn3)nc2NCCc2ccccn2)cc1 | < 0.5 µM
20 | Cc1ccc2ccc3cccnc3c2n1 | 7.33 µM
21 | O=C(N[C@H]1CC[C@@H](CCn2cc(-c3ccccn3)nn2)O[C@@H]1CO)c1ccccc1 | 15.5 µM
22 | CNc1nc(-c2ccccn2)nnc1-c1ccccc1 | < 0.5 µM
23 | O=S(=O)(N[C@@H]1CC[C@@H](CCn2cc(-c3ccccn3)nn2)O[C@H]1CO)c1cccc(F)c1 | 21.5 µM
24 | CC(C)C(=O)NC(c1ccco1)c1ccc2cccnc2c1O (stereo unspecified) | 0.957 µM
25 | Cc1ccc(Nc2nc(N)nc(CN3CCCCCC3)n2)cc1 | 34.4 µM
26 | O=C(NCCCn1ccnc1)C(=O)NCC1OCCN1S(=O)(=O)c1ccccc1 (stereo unspecified) | 6.92 µM
27 | N#CC1=C(N)Oc2c(ccc3cccnc23)C1c1cccnc1 (stereo unspecified) | 7.36 µM
28 | Oc1ccc(/C=N/Nc2ccc(Cl)nn2)c(O)c1O | 0.702 µM
29 | Cc1cccc(Nc2nc(-c3ccccn3)nnc2-c2ccccc2)n1 | < 0.5 µM
30 | Cc1nnc(SCC(=O)Nc2nnc(-c3ccccc3)o2)s1 | 16.4 µM
31 | O=C(Oc1c(CN2CCOCC2)cc(Cl)c2cccnc12)c1cccs1 | 15.2 µM
